Data taken from patent US6420558B1, “Aminopiperidine derivates as integrin αvβ3 antagonists” (Meiji Seika Kaisha, Ltd., priority 1998, dated 2002).

Assays:
GP IIb/IIIa = GP IIb/IIIa (Homo sapiens, UniProt P05106+P08514); assay: GP IIb/IIIa antagonistic activity (method of Pharmacological Test 2 in WO 94/21599); type: binding
Experimental: GP IIb/IIIa Antagonistic Activity and Human Platelet Aggregation Inhibitory Activity
GP IIb/IIIa antagonistic activity was measured for the compounds according to the present invention. The measurement of the GP IIb/IIIa antagonistic activity was carried out according to the method described in Pharmacological Test 2 in WO 94/21599.

[1] = biological target: T1, integrin αvβ3 (vitronectin receptor purified from the human placenta) (Homo sapiens, UniProt P05106+P06756); assay: αvβ3 binding assay (vitronectin-vitronectin receptor binding assay); settings: vitronectin binding to human placenta vitronectin receptor; read-out: integrin αvβ3 antagonistic activity, IC50 value
T1 construct: a vitronectin receptor (protein content: 118 μg/ml) purified from the human placenta; from tissue; host or cells: human placenta
T1 sequence (P06756 31-889 limits assumed): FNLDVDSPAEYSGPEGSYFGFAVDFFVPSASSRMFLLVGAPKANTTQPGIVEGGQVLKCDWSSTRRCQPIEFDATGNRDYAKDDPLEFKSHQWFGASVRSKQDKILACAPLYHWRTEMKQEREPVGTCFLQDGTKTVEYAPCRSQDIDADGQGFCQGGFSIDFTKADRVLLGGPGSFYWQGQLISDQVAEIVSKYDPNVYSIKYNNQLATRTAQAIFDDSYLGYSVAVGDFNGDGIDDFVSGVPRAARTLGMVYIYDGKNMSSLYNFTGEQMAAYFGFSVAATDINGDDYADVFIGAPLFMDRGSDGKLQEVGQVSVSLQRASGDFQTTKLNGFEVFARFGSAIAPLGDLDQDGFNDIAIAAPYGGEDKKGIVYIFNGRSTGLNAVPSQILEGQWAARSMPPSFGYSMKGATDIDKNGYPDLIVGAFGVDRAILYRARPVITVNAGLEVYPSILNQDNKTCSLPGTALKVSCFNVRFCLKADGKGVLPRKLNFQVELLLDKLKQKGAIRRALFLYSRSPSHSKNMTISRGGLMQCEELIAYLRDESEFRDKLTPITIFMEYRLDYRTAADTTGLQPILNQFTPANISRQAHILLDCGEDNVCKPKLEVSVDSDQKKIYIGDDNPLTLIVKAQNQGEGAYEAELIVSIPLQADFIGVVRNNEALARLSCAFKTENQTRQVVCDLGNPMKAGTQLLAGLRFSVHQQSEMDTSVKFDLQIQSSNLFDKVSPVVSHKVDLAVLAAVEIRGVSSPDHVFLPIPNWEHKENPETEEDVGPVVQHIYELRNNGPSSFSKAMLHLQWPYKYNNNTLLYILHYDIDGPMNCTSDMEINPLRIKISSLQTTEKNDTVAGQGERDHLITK
T1 sequence (P06756 891-1048 limits assumed): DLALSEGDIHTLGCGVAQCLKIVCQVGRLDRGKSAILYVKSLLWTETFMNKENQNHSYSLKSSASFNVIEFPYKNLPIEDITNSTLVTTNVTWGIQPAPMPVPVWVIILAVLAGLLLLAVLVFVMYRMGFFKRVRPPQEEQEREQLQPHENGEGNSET
T1 sequence (P05106 27-788): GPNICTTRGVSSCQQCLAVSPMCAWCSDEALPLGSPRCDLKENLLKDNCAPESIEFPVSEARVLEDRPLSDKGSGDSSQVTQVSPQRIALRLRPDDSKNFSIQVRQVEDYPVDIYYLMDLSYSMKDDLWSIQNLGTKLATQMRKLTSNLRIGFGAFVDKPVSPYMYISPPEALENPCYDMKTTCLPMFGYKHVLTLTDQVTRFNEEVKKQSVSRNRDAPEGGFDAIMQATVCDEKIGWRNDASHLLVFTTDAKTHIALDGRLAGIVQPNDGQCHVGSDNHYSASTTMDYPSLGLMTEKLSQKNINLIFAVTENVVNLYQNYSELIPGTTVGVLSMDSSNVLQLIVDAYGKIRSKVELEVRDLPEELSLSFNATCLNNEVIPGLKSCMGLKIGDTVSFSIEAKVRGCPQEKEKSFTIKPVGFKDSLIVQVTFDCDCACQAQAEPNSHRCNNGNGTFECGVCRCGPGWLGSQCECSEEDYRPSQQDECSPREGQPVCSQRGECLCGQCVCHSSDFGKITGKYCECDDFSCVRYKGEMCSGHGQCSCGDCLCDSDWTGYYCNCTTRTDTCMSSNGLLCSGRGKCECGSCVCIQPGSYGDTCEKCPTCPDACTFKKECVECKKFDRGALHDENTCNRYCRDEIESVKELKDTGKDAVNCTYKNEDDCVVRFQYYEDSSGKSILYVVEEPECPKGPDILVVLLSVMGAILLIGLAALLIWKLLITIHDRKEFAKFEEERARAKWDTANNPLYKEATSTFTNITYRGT
Experimental: Integrin αvβ3 antagonistic activity was measured for the compounds according to the present invention in a vitronectin-vitronectin receptor binding assay system in accordance with the method of Kouns et al. (W. C. Kouns, D. Kirchhofer, P. Hadvary, A. Edenhofer, T. Weller, G. Pfenninger, H. R. Baumgartner, L. K. Jennings and B. Steiner, Blood, 80, 2539-2547 (1992)).
Specifically, a vitronectin receptor (protein content: 118 μg/ml) purified from the human placenta in accordance with the method of Pytela et al. (R. Pytela, M. D. Pierschbacher, S. Argraves, S. Suzuki, and E. Ruoslahti, Method in Enzymology, 144, 475-489 (1987)) was diluted 50 times with TBS (20 mM Tris-HCl, 150 mM NaCl, 1 mM CaCl2, 1 mM MgCl2, pH 7.4), and distributed and coated on wells (50 μl/well) of a plate (Maxisorp, Nunc, 96 well Immuno Plate). The plate was then allowed to stand at 4° C. for 1 day, washed twice with TBS (200 μl/well), and then subjected to blocking with TBS (150 μl/well) containing 1% bovine serum albumin (SIGMA) at 4° C. overnight. After washing twice with TBS (200 μl/well), 50 μl of vitronectin (CALBIOCHEM) adjusted to 0.2 μg/ml by the addition of TBS (TBS-Tween) containing 0.01% Tween-20 was mixed with 50 μl of each test compound adjusted to each concentration in wells, and a reaction was allowed to proceed at room temperature for 4 hr. After the completion of the reaction, the wells were washed five times with TBS-Tween. A solution prepared by diluting anti-vitronectin rabbit antiserum (CHEMICON) 500 times with TBS-Tween was added as a primary antibody in an amount of 50 μl/well, and a reaction was allowed to proceed at room temperature for 1.5 hr. After washing five times with 200 μl/well of TBS-Tween, a peroxidase (POD)-labeled anti-rabbit IgG antibody solution (CAPPEL) diluted 500 times with TBS-Tween was added as a secondary antibody in an amount of 50 μl/well, and a reaction was allowed to proceed at room temperature for 1.5 hr. After washing five times with TBS-Tween (200 μl/well), ABTS (2,2′-azino-bis(3-ethylbenzthiazoline-6-sulfonic acid), SIGMA) was adjusted to 1 mg/ml by the addition of a ten-fold diluted POD-buffer (ZYMED), and added in an amount of 50 μl/well, and a reaction was allowed to proceed for 5 to 10 min. A 0.1 M citric acid buffer (pH 4.3) containing 0.05% NaN3 was added in an amount of 50 μl/well to stop the reaction, followed by the measurement of the absorbance at 415 nm with a microplate reader (MTP 32, Corona Electric) (reference: 675 nm). The total binding was defined as the absorbance after a reaction using 50 μl of TBS-Tween instead of the test compound, and the non-specific binding (100% inhibition) was defined as the absorbance after a reaction using 50 μl of TBS-Tween containing 2×10^−3 M RGDS. The inhibition was calculated by the following equation: [formula]
IC50 was determined from a primary regression line of the logarithm of each concentration of the test compound and the logarithm of (100−inhibition)/inhibition.

[2] = system: human vascular smooth muscle cells adhering to immobilized human vitronectin; assay: Inhibitory activity against adhesion of human vascular smooth muscle cells to vitronectin; type: cell-based; settings: 1.5 h; human vitronectin-coated plate, 90 min
Experimental: Inhibitory Activity Against Adhesion of Human Vascular Smooth Muscle Cells to Vitronectin
The adhesion of human vascular smooth muscle cells =+to immobilized human vitronectin was measured in accordance with the method of Liaw et al. (Liaw L, Almeida M, Hart C E, Schwartz S M, and Giachelli C M, Circulation Research, 74 (2), 214-224 (1994)).
A Dulbecco's phosphate buffer (Dulbecco's PBS(−), Nissui Pharmaceutical Co., Ltd.) solution of human plasma-derived vitronectin (CALBIOCHEM) adjusted to a concentration of 4 μg/ml was first added to wells (50 μl/well) of a microplate (Maxisorp, Nunc), and a reaction for immobilization was allowed to proceed at 4° C. overnight. After washing twice with 150 μl of Dulbecco's phosphate buffer, a Dulbecco's phosphate buffer containing 10 mg/ml of bovine serum albumin (SIGMA) was added, followed by blocking at 37° C. for one hr. The assay plate was washed twice with 150 μl of Dulbecco's phosphate buffer.
Separately, human vascular smooth muscle cells cultivated at 37° C. under 5% carbon dioxide in a medium for vascular smooth muscle cells (Clonetics) were separated using a Dulbecco's phosphate buffer containing trypsin-EDTA (GIBCO BRL), washed with Dulbecco's phosphate buffer, and then suspended in a Dulbecco's modified Eagle's basal medium (Nissui Pharmaceutical Co., Ltd.) containing 0.1% bovine serum albumin to a concentration of 5×10^5/ml.
Next, 50 μl of a Dulbecco's modified Eagle's basal medium containing 10 mg/ml of bovine serum albumin with a medicament added thereto was added to the wells of the human vitronectin-coated assay microplate, followed by pre-cultivation under 5% carbon dioxide at 37° C. for 10 min. Thereafter, 50 μl of the medium with human vascular smooth muscle cells suspended therein was added thereto, and the plate was thoroughly stirred. A reaction was allowed to proceed under 5% carbon dioxide at 37° C. for 90 min. The reaction solution containing non-adherent cells were then removed, followed by washing three times with Dulbecco's phosphate buffer. For the adhered cells, 100 μl of a Dulbecco's phosphate buffer containing 4% paraformaldehyde (Wako Pure Chemical Industries, Ltd.) was added, and immobilization was allowed to proceed at room temperature for 10 min. Next, 100 μl of a Dulbecco's phosphate buffer containing 0.5% Toluidine Blue (Croma) and 4% paraformaldehyde was added, and staining was allowed to proceed at room temperature for 5 min, followed by thorough washing with distilled water. The inside of the wells was then air-dried, and a 1% aqueous sodium dodecylsulfate solution was then added to perform cytolysis. The absorbance of the microplate thus obtained was measured at 595 nm. […] The inhibition was calculated by the following equation. IC50 was determined from a primary regression line of the logarithm of each concentration of the test compound and the logarithm of (100−inhibition)/inhibition. [formula]

Sequence of GP IIb/IIIa (P08514 32-887 limits assumed): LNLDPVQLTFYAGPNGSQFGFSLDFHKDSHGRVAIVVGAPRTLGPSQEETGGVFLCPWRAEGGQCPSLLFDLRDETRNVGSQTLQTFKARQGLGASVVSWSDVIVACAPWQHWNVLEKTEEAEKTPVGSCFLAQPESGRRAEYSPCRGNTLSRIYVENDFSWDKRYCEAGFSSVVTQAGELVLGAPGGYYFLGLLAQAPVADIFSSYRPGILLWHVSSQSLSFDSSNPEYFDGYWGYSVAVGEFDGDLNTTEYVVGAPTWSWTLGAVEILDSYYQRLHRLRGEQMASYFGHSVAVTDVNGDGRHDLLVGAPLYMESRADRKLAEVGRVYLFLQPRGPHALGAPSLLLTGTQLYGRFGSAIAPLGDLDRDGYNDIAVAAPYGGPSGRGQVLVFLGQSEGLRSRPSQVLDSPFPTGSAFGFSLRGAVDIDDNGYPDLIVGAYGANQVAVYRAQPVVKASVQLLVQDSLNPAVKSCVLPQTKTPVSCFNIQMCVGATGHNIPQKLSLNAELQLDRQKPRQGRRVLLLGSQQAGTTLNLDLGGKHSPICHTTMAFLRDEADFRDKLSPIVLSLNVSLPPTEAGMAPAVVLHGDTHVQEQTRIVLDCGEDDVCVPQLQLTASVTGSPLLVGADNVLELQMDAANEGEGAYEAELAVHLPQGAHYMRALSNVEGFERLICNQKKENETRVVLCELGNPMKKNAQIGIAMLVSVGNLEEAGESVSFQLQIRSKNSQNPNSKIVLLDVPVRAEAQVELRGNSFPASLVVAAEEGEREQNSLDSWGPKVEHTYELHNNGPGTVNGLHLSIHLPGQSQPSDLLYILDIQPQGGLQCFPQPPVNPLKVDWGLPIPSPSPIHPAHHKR
Sequence of GP IIb/IIIa (P08514 891-1039 limits assumed): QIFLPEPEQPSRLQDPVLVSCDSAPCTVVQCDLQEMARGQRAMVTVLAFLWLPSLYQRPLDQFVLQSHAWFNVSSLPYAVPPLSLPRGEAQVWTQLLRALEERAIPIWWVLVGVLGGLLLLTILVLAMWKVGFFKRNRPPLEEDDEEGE
Sequence of GP IIb/IIIa (P05106 27-788): as the sequence (P05106 27-788) above

SMILES	IC50 (GP IIb/IIIa) [nM]	IC50 [1] [nM]	IC50 [2] [nM]
COc1ccc(S(=O)(=O)N[C@@H](CNC(=O)c2ccc(N3CCC(NC4=NCCCN4)CC3)c(F)c2)C(=O)O)cc1 [Example 73, 3-[3-Fluoro-4-{4-(1,4,5,6-tetrahydropyrimidin-2-ylamino)piperidin-1-yl}benzoyl-amino]-(2S)-{(4-methoxybenzenesulfonyl)amino}propionic acid]	≤ 1	≤ 1	–
O=C(O)c1ccc(S(=O)(=O)N[C@@H](CNC(=O)c2ccc(N3CCC(N=C4NCCCN4)CC3)c(F)c2)C(=O)O)cc1 [Example 78, (2S)-(4-Carboxybenzenesulfonyl)amino-3-[3-fluoro-4-{4-(1.4.5.6-tetrahydropyrimidin-2-ylamino)-piperidin-1-yl}benzoylamino]propionic acid]	≤ 1	≤ 1	–
Cc1cc(C)c(S(=O)(=O)N[C@@H](CNC(=O)c2ccc(N3CCC(Nc4nc5ccccc5[nH]4)CC3)cc2)C(=O)O)c(C)c1 [Example 31, 3-[4-{4-(1H-Benzimidazol-2-ylamino)piperidin-1-yl}benzoylamino]-(2S)-{(2,4,6-trimethylbenzenesulfonyl)amino}propionic acid]	≤ 1	≤ 1	–
O=C(NC[C@H](NS(=O)(=O)c1ccccc1)C(=O)O)c1ccc(N2CCC(NC3=NCCCN3)CC2)c(F)c1F [Example 57, (2S)-Benzenesulfonylamino-3-[2,3-difluoro-4-{4-(1,4,5,6-tetrahydropyrimidin-2-ylamino)piperidin-1yl}benzoylamino]propionic acid]	≤ 1	≤ 1	≤ 70
O=C(NC[C@H](NS(=O)(=O)c1ccccc1)C(=O)O)c1ccc(N2CCC(N=C3NCCCN3)CC2)c(O)c1 [Example 95, (2S)-Benzenesulfonylamino-3-[3-hydroxy-4-{4-(1,4,5,6tetrahydropyrimidin-2-ylamino)piperidin-1-yl}-benzoylamino]propionic acid]	≤ 1	≤ 1	–
COc1cc(C(=O)NC[C@H](NS(=O)(=O)c2ccccc2)C(=O)O)ccc1N1CCC(NC2=NCCCN2)CC1 [Example 93, (2S)-Benzenesulfonylamino-3-[3-methoxy-4-{4-(1,4,5,6tetrahydropyrimidin-2-ylamino)piperidin-1-yl}-benzoylamino]propionic acid]	≤ 1	≤ 1	≤ 70
O=C(NC[C@H](NS(=O)(=O)c1ccccc1)C(=O)O)c1ccc(N2CCC(Nc3nc4ncccc4[nH]3)CC2)cc1 [Example 38, (2S)-Benzenesulfonylamino-3-[4-[4-{(1H-imidazo[4,5-b]pyridin-2-yl)amino}piperidin-1-yl]benzoyl-amino]propionic acid]	≤ 1	≤ 1	–
Nc1ccc(S(=O)(=O)N[C@@H](CNC(=O)c2ccc(N3CCC(Nc4nc5ccccc5[nH]4)CC3)cc2)C(=O)O)cc1 [Example 36, (2S)-(4-Aminobenzenesulfonyl)amino-3-[4-{4-(1H-benzimidazol-2-ylamino)piperidin-1-yl}benzoylamino]-propionic acid]	≤ 1	≤ 1	–
O=C(NC[C@H](NS(=O)(=O)c1ccc(O)cc1)C(=O)O)c1ccc(N2CCC(NC3=NCCCN3)CC2)c(F)c1 [Example 75, 3-[3-Fluoro-4-{4-(1,4,5,6-tetrahydropyrimidin-2-ylamino)piperidin-1-yl}benzoyl-amino]-(2S)-{(4-hydroxybenzenesulfonyl)amino}propionic acid]	≤ 1	≤ 1	≤ 70
O=C(NC[C@H](NS(=O)(=O)c1ccc(F)cc1)C(=O)O)c1ccc(N2CCC(Nc3nc4ccccc4[nH]3)CC2)cc1 [Example 33, 3-[4-{4-(1H-Benzimidazol-2-ylamino)piperidin-1-yl}benzoylamino]-(2S)-{(4-fluoro-benzenesulfonyl)amino}propionic acid]	≤ 1	≤ 1	–
O=C(NC[C@H](NS(=O)(=O)c1ccc([N+](=O)[O-])cc1)C(=O)O)c1ccc(N2CCC(Nc3nc4ccccc4[nH]3)CC2)cc1 [Example 35, 3-[4-{4-(1H-Benzimidazol-2-ylamino)piperidin-1-yl}benzoylamino]-(2S)-{(4-nitro-benzenesulfonyl)amino}propionic acid]	≤ 1	≤ 1	≤ 70
